From ChEMBL document CHEMBL1201862, “PubChem BioAssay data set” (2004)
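Exposure lasted 48 hours, with cells grown in 96-well plates and compounds tested at five concentrations. At the GI50, growth is halved.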 Active and inactive are the calls of the source. Cut-off read from the data, not from the text of the source: active = GI50 up to about 1.1 µM and inactive = higher.

Assays:
Experiment in all cases: NCI anticancer screen, dose series, 48 h
NCI/ADR-RES = test system: NCI/ADR-RES
OVCAR-5 = test system: OVCAR-5
RXF 393 = test system: RXF 393
SK-MEL-2 = test system: SK-MEL-2
SF-539 = test system: SF-539
MOLT-4 = test system: MOLT-4
HCC 2998 = test system: HCC 2998
MCF7 = test system: MCF7
Malme-3M = test system: Malme-3M
U-251 = test system: U-251
SK-MEL-5 = test system: SK-MEL-5
M14 = test system: M14
786-0 = test system: 786-0
ACHN = test system: ACHN
HL-60 = test system: HL-60
UO-31 = test system: UO-31
HCT-15 = test system: HCT-15
MDA-MB-231 = test system: MDA-MB-231
LOX IMVI = test system: LOX IMVI
OVCAR-4 = test system: OVCAR-4

SMILES	GI50 (NCI/ADR-RES)	GI50 (OVCAR-5)	GI50 (RXF 393)	GI50 (SK-MEL-2)	GI50 (SF-539)	GI50 (MOLT-4)	GI50 (HCC 2998)	GI50 (MCF7)	GI50 (Malme-3M)	GI50 (U-251)	GI50 (SK-MEL-5)	GI50 (M14)	GI50 (786-0)	GI50 (ACHN)	GI50 (HL-60)	GI50 (UO-31)	GI50 (HCT-15) [µM]	GI50 (MDA-MB-231)	GI50 (LOX IMVI)	GI50 (OVCAR-4)
O=C1C(CN2CCCCC2)CCC1CN1CCCCC1 (stereo not drawn)	37.4 µM (inactive)	11.4 µM (inactive)	14.8 µM (inactive)	30.1 µM (inactive)	30.6 µM (inactive)	2.22 µM (inactive)	> 44.7 µM (inactive)	21.9 µM (inactive)	17.7 µM (inactive)	> 46.7 µM (inactive)	43.9 µM (inactive)	15.5 µM (inactive)	19.5 µM (inactive)	26 µM (inactive)	1.5 µM (inactive)	15 µM (inactive)	20	20.2 µM (inactive)	16 µM (inactive)	–
C[C@H](C1CC2(C)OC2(C)C(=O)O1)[C@H]1CC[C@H]2[C@@H]3[C@@H]4O[C@@H]4[C@@]4(O)CC=CC(=O)[C@]4(C)[C@H]3CC[C@]12C (stereo partly drawn)	> 50 µM (inactive)	> 50 µM (inactive)	9.71 µM (inactive)	> 50 µM (inactive)	–	> 50 µM (inactive)	> 50 µM (inactive)	> 50 µM (inactive)	–	> 50 µM (inactive)	> 50 µM (inactive)	> 50 µM (inactive)	> 50 µM (inactive)	> 50 µM (inactive)	> 50 µM (inactive)	12.3 µM (inactive)	> 50	> 50 µM (inactive)	> 50 µM (inactive)	> 50 µM (inactive)
Oc1cc(-c2cccc(OC(F)(F)F)c2)nc2ccc(N3CCCC3)cc12	0.00016 µM (active)	0.000297 µM (active)	0.000116 µM (active)	0.000127 µM (active)	0.000147 µM (active)	0.000335 µM (active)	0.000547 µM (active)	0.0337 µM (active)	0.000114 µM (active)	< 0.0001 µM (active)	0.000209 µM (active)	0.00012 µM (active)	0.00014 µM (active)	0.000622 µM (active)	< 0.0001 µM (active)	0.000555 µM (active)	0.0004	0.00156 µM (active)	0.000205 µM (active)	–
CSc1nc(=O)c2nc(-c3cccs3)c(-c3cccs3)nc2n1C	50.2 µM (inactive)	75.3 µM (inactive)	18.7 µM (inactive)	49.2 µM (inactive)	–	> 100 µM (inactive)	> 100 µM (inactive)	24 µM (inactive)	50.9 µM (inactive)	28.2 µM (inactive)	> 100 µM (inactive)	> 100 µM (inactive)	30.2 µM (inactive)	37.7 µM (inactive)	96.6 µM (inactive)	33.7 µM (inactive)	> 100	97.7 µM (inactive)	57.5 µM (inactive)	30.7 µM (inactive)
COc1ccc2c(c1)[C@@]13CCCC[C@H]1[C@@H](C2)N(C)CC3=O	26.9 µM (inactive)	17.3 µM (inactive)	15.3 µM (inactive)	25.2 µM (inactive)	–	19.7 µM (inactive)	16.8 µM (inactive)	18.3 µM (inactive)	18.5 µM (inactive)	22.2 µM (inactive)	22.6 µM (inactive)	16.1 µM (inactive)	17.9 µM (inactive)	16.6 µM (inactive)	8.04 µM (inactive)	18.7 µM (inactive)	17.8	18.5 µM (inactive)	16.9 µM (inactive)	16.1 µM (inactive)
Cn1c2ccccc2n2c(N=O)c(-c3ccccc3)nc12	18.4 µM (inactive)	59.3 µM (inactive)	49.3 µM (inactive)	33.1 µM (inactive)	–	52.7 µM (inactive)	11.7 µM (inactive)	29 µM (inactive)	69.5 µM (inactive)	49.8 µM (inactive)	14.8 µM (inactive)	19.6 µM (inactive)	> 100 µM (inactive)	> 100 µM (inactive)	92.3 µM (inactive)	32.5 µM (inactive)	20.1	53.6 µM (inactive)	> 100 µM (inactive)	62.4 µM (inactive)
